The assay has as its target T1, USP7 (Homo sapiens, UniProt Q93009, C315A).
T1 construct: 0.25 nM His-His-USP7 (aa208-560, [C315A]) was incubated with compound; His-His (N)
Nature of the assay: Inhibition of USP7 by Fluorescence Intensity (FLINT) readings, Ubiquitin-Rhodamine-110 substrate. To be noted: 0.25 nM His-His-USP7 (aa208-560, [C315A]); compound 60 minutes at 30° C.; 500 nM Ubiquitin-Rhodamine substrate; 11-point curves. The format is biochemical. The protocol:
USP7 activity was measured using Rhodamine-110 c-terminal labelled Ubiquitin as a substrate (Viva Biosciences). Incubation with USP7 results in the release of Rhodamine-110 leading to an increase in fluorescence which can be used in the continuous measurement of USP7 activity.
The USP7 reactions were performed in a 50 μL volume, in 384 well black solid low binding plates (Corning #3575). The reaction buffer consisted of 100 mM Bicine pH 8.0, 0.01% TritonX 100, 1 mM TCEP, and 10% DMSO.
0.25 nM His-His-USP7 (aa208-560, [C315A]) was incubated with compound (final concentration 10% DMSO) for 60 minutes at 30° C. The reaction was then initiated by the addition of 500 nM Ubiquitin-Rhodamine-10 substrate and the plate read every 3 minutes for 21 minutes to measure the release of Rhodamine-110. Fluorescence Intensity (FLINT) readings were measured using a Biomek Neo plate reader (Ex. 485 nm. Em. 535 nm).
The inhibition of increasing doses of compound was expressed as a percentage reduction in kinetic rate compared to the kinetic rates established between ‘DMSO only’ and ‘total inhibition’ controls (no USP7). The inhibitory concentrations that gave a 50% reduction in kinetic rate (IC50) were determined, from 11-point dose response curves, in XL-Fit using a 4-Parameter Logistic Model (Sigmoidal Dose-Response Model).
T1 sequence (Q93009 208-560 C315A): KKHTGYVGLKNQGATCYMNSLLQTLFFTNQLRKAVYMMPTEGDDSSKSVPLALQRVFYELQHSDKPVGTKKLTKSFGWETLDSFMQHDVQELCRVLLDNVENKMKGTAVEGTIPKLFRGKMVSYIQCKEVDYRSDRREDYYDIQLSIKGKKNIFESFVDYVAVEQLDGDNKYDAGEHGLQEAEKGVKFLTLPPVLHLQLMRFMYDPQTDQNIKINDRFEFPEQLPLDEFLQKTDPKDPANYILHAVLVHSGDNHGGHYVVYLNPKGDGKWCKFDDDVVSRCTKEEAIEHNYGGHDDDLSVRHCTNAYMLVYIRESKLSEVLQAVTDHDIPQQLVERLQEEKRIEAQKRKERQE
Usually IC50 stands for the concentration that inhibits the measured activity by half. Low readings indicate higher potency, high ones lower potency. The molecule `Cn1ccc2c(=O)n(CC3(O)CCN(C(=O)[C@@H]4CCCC[C@H]4c4ccsc4)CC3)cnc21` (relative stereo) [Example 2, 3-[[4-hydroxy-1-[trans-2-(3-thienyl)cyclohexanecarbonyl]-4-piperidyl]methyl]-7-methyl-pyrrolo[2,3-d]pyrimidin-4-one] registered a 50% inhibitory concentration (IC50) of 439 nM. In the case of `Nc1ccc2ncn(CC3(O)CCN(C(=O)[C@@H]4CCCC[C@H]4c4ccccc4)CC3)c(=O)c2n1` (relative stereo) [Example 100, 6-amino-3-[[4-hydroxy-1-(trans-2-phenylcyclohexanecarbonyl)-4-piperidyl]methyl]pyrido[3,2-d]pyrimidin-4-one] it was 226 nM.

Regarding `O=C([C@@H]1CCC(F)(F)C[C@H]1c1ccccc1)N1CCC(O)(Cn2cnc3c(ccn3C3CC3)c2=O)CC1` (single isomer, unassigned) [Example 116, 7-cyclopropyl-3-[[1-[trans-4,4-difluoro-2-phenyl-cyclohexanecarbonyl]-4-hydroxy-4-piperidyl]methyl]pyrrolo[2,3-d]pyrimidin-4-one], the half-inhibitory concentration (IC50) was determined as 205 nM. The IC50 values of the last two molecules are within 1.5-fold of each other. The same measure for `O=C(CC1CCCO1)Nc1ccc2ncn(CC3(O)CCN(C(=O)[C@@H]4CCCC[C@H]4c4ccccc4)CC3)c(=O)c2n1` (relative stereo) [Example 106, N-[3-[[4-hydroxy-1-(trans-2-phenylcyclohexanecarbonyl)-4-piperidyl]methyl]-4-oxo-pyrido[3,2-d]pyrimidin-6-yl]-2-tetrahydrofuran-2-yl-acetamide]: 100 nM; for `O=C([C@@H]1CCC(F)(F)C[C@H]1c1cccs1)N1CCC(O)(Cn2cnc3c(ccn3-c3ccccc3)c2=O)CC1` (relative stereo) [Example 71, 3-[[1-[trans-4,4-difluoro-2-(2-thienyl)cyclohexanecarbonyl]-4-hydroxy-4-piperidyl]methyl]-7-phenyl-pyrrolo[2,3-d]pyrimidin-4-one]: 162 nM; for `O=C([C@@H]1CCC(F)(F)C[C@H]1c1cscn1)N1CCC(O)(Cn2cnc3c(-c4ccccc4)scc3c2=O)CC1` (single isomer, unassigned) [Example 83, 3-[[1-[trans-4,4-difluoro-2-thiazol-4-yl-cyclohexanecarbonyl]-4-hydroxy-4-piperidyl]methyl]-7-phenyl-thieno[3,4-d]pyrimidin-4-one]: 632 nM. The same measure for `O=C([C@@H]1CCCC[C@H]1c1ccccc1)N1CCC(O)(Cn2cnc3c(ccn3Cc3cccnc3)c2=O)CC1` (relative stereo) [Example 109, 3-[[4-hydroxy-1-(trans-2-phenylcyclohexanecarbonyl)-4-piperidyl]methyl]-7-(3-pyridylmethyl)pyrrolo[2,3-d]pyrimidin-4-one]: 1010 nM. `O=C([C@@H]1CC(F)(F)CC[C@H]1c1ccccc1)N1CCC(O)(Cn2cnc3c(-c4ccccc4)scc3c2=O)CC1` (single isomer, unassigned) [Example 78, 3-[[1-[trans-5,5-difluoro-2-phenyl-cyclohexanecarbonyl]-4-hydroxy-4-piperidyl]methyl]-7-phenyl-thieno[3,4-d]pyrimidin-4-one] gave an IC50 of 10300 nM. In turn, `COc1ccc(-n2ccc3c(=O)n(CC4(O)CCN(C(=O)C5CCCCN5c5ccccc5)CC4)cnc32)cc1` (centres unmarked) [Example 10, 3-[[4-hydroxy-1-(1-phenylpiperidine-2-carbonyl)-4-piperidyl]methyl]-7-(4-methoxyphenyl)pyrrolo[2,3-d]pyrimidin-4-one] showed an IC50 of 425 nM. This IC50 is about 24-fold lower than that of the molecule before. `O=C([C@@H]1CCCO[C@H]1c1ccccc1)N1CCC(O)(Cn2cnc3c(ccn3-c3ccccc3)c2=O)CC1` (single isomer, unassigned) [Example 26, 3-[[4-hydroxy-1-[trans-2-phenyltetrahydropyran-3-carbonyl]-4-piperidyl]methyl]-7-phenyl-pyrrolo[2,3-d]pyrimidin-4-one] yielded a half-inhibitory concentration (IC50) of 67 nM. In the case of `O=C(Nc1ccc2ncn(CC3(O)CCN(C(=O)[C@@H]4CCCC[C@H]4c4ccccc4)CC3)c(=O)c2n1)C1CCCC1O` (relative stereo) [Example 103, 2-hydroxy-N-[3-[[4-hydroxy-1-(trans-2-phenylcyclohexanecarbonyl)-4-piperidyl]methyl]4-oxo-pyrido[3,2-d]pyrimidin-6-yl]cyclopentanecarboxamide] it was 125 nM. In the case of `O=C([C@@H]1CCCC[C@H]1c1ccccc1)N1CCC(O)(Cn2cnc3c(ccn3Cc3ccsc3)c2=O)CC1` (relative stereo) [Example 110, 3-[[4-hydroxy-1-(trans-2-phenylcyclohexanecarbonyl)-4-piperidyl]methyl]-7-(3-thienylmethyl)pyrrolo[2,3-d]pyrimidin-4-one] it was 450 nM. Turning to `COc1ccc(-n2ccc3c(=O)n(CC4(O)CCN(C(=O)[C@@H]5CCCC[C@H]5c5ccc(F)cc5)CC4)cnc32)cc1` (single isomer, unassigned) [Example 40, 3-[[1-[trans-2-(4-fluorophenyl)cyclohexanecarbonyl]-4-hydroxy-4-piperidyl]methyl]-7-(4-methoxyphenyl)pyrrolo[2,3-d]pyrimidin-4-one], half-maximal inhibition (IC50) was put at 883 nM. This IC50 is about 2-fold higher than that of the molecule before.

In turn, `COc1ccc(CNc2ccc3ncn(CC4(O)CCN(C(=O)[C@@H]5CCCC[C@H]5c5ccccc5)CC4)c(=O)c3n2)cc1` (relative stereo) [Example 94, 3-[[4-hydroxy-1-(trans-2-phenylcyclohexanecarbonyl)-4-piperidyl]methyl]-6-[(4-methoxyphenyl)methylamino]pyrido[3,2-d]pyrimidin-4-one] displayed a concentration for half-maximal inhibition (IC50) of 351 nM. The same measure for `CCn1cc([C@@H]2CC(F)(F)CC[C@H]2C(=O)N2CCC(O)(Cn3cnc4c(-c5ccccc5)scc4c3=O)CC2)cn1` (single isomer, unassigned) [Example 81, 3-[[1-[trans-2-(1-ethylpyrazol-4-yl)-4,4-difluoro-cyclohexanecarbonyl]-4-hydroxy-4-piperidyl]methyl]-7-phenyl-thieno[3,4-d]pyrimidin-4-one]: 76300 nM. In the case of `COc1ccc(-n2ccc3c(=O)n(CC4(O)CCN(C(=O)C5C(C)=CCCC5c5cccs5)CC4)cnc32)cc1` (single isomer, unassigned) [Example 60, 3-[[4-hydroxy-1-[trans-2-methy-6-(2-thienyl)cyclohex-2-ene-1-carbonyl]-4-piperidyl]methyl]-7-(4-methoxyphenyl)pyrrolo[2,3-d]pyrimidin-4-one], 725 nM corresponded to half-maximal inhibition (IC50). In the case of `O=C([C@@H]1CCCC[C@H]1c1ccccc1)N1CCC(O)(Cn2cnc3cccnc3c2=O)CC1` (relative stereo) [Example 93, 3-[[4-hydroxy-1-(trans-2-phenylcyclohexanecarbonyl)-4-piperidyl]methyl]pyrido[3,2-d]pyrimidin-4-one] it was 171 nM; in that of `COc1ccc(C(=O)Nc2ccc3ncn(CC4(O)CCN(C(=O)[C@@H]5CCCC[C@H]5c5ccccc5)CC4)c(=O)c3n2)cc1` (relative stereo) [Example 107, N-[3-[[4-hydroxy-1-(trans-2-phenylcyclohexanecarbonyl)-4-piperidyl]methyl]-4-oxo-pyrido[3,2-d]pyrimidin-6-yl]-4-methoxy-benzamide], 102 nM.

The molecule `O=C(C1CCCC(O)C1c1ccccc1)N1CCC(O)(Cn2cnc3c(ccn3-c3ccccc3)c2=O)CC1` (single isomer, unassigned) [Example 56, (1S,2S,3S or 1R,2R,3R)-3-[[4-hydroxy-1-[3-hydroxy-2-phenyl-cyclohexanecarbonyl]-4-piperidyl]methyl]-7-phenyl-pyrrolo[2,3-d]pyrimidin-4-one] returned a concentration for half-maximal inhibition (IC50) of 2550 nM. This IC50 lies about 25-fold higher than the previous one. In the case of `O=C([C@@H]1CCC(F)(F)C[C@H]1c1cocn1)N1CCC(O)(Cn2cnc3c(-c4ccc(CO)cc4)scc3c2=O)CC1` (relative stereo) [Example 77, 3-[[1-[trans-4,4-difluoro-2-oxazol-4-yl-cyclohexanecarbonyl]-4-hydroxy-4-piperidyl]methyl]-7-[4-(hydroxymethyl)phenyl]thieno[3,4-d]pyrimidin-4-one] it was 591 nM; in that of `O=C(C1CCCCC1c1ccc(F)cc1)N1CCC(O)(Cn2cnc3c(ccn3-c3ccccc3)c2=O)CC1` (single isomer, unassigned) [Example 42, 3-[[1-[(trans-2-(4-fluorophenyl)cyclohexanecarbonyl]-4-hydroxy-4-piperidyl]methyl]-7-phenyl-pyrrolo[2,3-d]pyrimidin-4-one], 1590 nM; in that of `O=C(Cc1c[nH]c2ccc(O)cc12)Nc1ccc2ncn(CC3(O)CCN(C(=O)C4CCCCC4c4ccccc4)CC3)c(=O)c2n1` (stereo not drawn) [Example 105, 2-(5-hydroxy-1H-idol-3-yl)-N-[3-[[4-hydroxy-1-(trans-2-phenylcyclohexanecarbonyl)-4-piperidyl]methyl]-4-oxo-pyrido[3,2-d]pyrimidin-6-yl]acetamide], 15.3 nM. `Cn1ccc2c(=O)n(CC3(O)CCN(C(=O)[C@@H]4CCCC[C@H]4c4ccoc4)CC3)cnc21` (relative stereo) [Example 3, 3-[[1-[trans-2-(3-furyl)cyclohexanecarbonyl]-4-hydroxy-4-piperidyl]methyl]-7-methyl-pyrrolo[2,3-d]pyrimidin-4-one]: half-maximal inhibition (IC50) required 530 nM.

For the origin of these results see US11332472B2, “Substituted piperidines as inhibitors of ubiquitin specific protease 7” (LES LABORATOIRES SERVIER, priority 2017, dated 2022).
